Reference: ChEMBL document CHEMBL4393728, “1-Phenyl-dihydrobenzoindazoles as novel colchicine site inhibitors: Structural basis and antitumor efficacy” (Eur J Med Chem, 2019)
Converted amounts (≈) assume the structure as drawn. The source made the active and inactive calls. The rule behind the calls is not given here.

Experiments:
HCT-116 [1] = assay: Antiproliferative activity against human HCT116 cells assessed as reduction in cell viability incubated for 72 hrs by MTT assay; type: functional, cell-based; settings: HCT-116, 72 h
Tubulin = Tubulin (Bos taurus, UniProt Q6B856+Q862L2+Q862F3); assay: Inhibition of bovine brain tubulin polymerization measured every 1 min for 60 mins by turbidimetric assay
COLO 205 [2] = assay: Antiproliferative activity against human COLO205 cells assessed as reduction in cell viability incubated for 72 hrs by MTT assay; type: functional, cell-based; settings: COLO 205, 72 h
[3] = Toxicity in BALB/c mouse xenografted with COLO205 cells assessed as reduction in body weight at 20 mg/kg, iv via tail once every 4 days for 16 days; type: organism-based; settings: in vivo
HCT-116 [4] = assay: Antitumor activity against human HCT116 cells xenografted in BALB/c mouse assessed as reduction in tumor growth at 20 mg/kg, iv via tail once every 4 days for 16 days; type: functional, organism-based
[5] = Toxicity in BALB/c mouse xenografted with HCT116 cells assessed as reduction in body weight at 20 mg/kg, iv via tail once every 4 days for 16 days; type: organism-based; settings: in vivo
COLO 205 [6] = assay: Antitumor activity against human COLO205 cells xenografted in BALB/c mouse assessed as reduction in tumor growth at 20 mg/kg, iv via tail once every 4 days for 16 days; type: functional, organism-based
[7] = Solubility of compound in normal saline; type: physicochemical

SMILES | IC50 (Tubulin) [nM] | IC50 (COLO 205 [2]) [nM] | further results
COc1ccc(/C=C\c2cc(OC)c(OC)c(OC)c2)cc1O [COMBRETASTATIN A4] | – | – | IC50 (HCT-116 [1]): 1 nM
COc1ccc(/C=C2\c3cc(OC)c(OC)c(OC)c3CC[C@@H]2O)cc1 | > 10000 | 8150 | –
COc1ccc(-c2[nH]nc3c2-c2cc(OC)c(OC)c(OC)c2CC3)cc1NC(=O)[C@@H](N)CO.Cl | > 10000 | 2110 | IC50 (HCT-116 [1]): 1940 nM; Activity [3]: Non-Toxic; Activity (HCT-116 [4]): Active; Activity [5]: Non-Toxic; Activity (COLO 205 [6]): Active
COc1ccc(-c2[nH]nc3c2-c2cc(OC)c(OC)c(OC)c2CC3)cc1N | 1600 | 1 | IC50 (HCT-116 [1]): 1 nM; solubility [7]: 1000 µg/mL (≈ 2620 µM)
COc1ccc(-c2c3c(nn2C)CCc2c-3cc(OC)c(OC)c2OC)cc1F | > 10000 | 1230 | –

Second part, led by results:

IC50 (Tubulin) [nM] | IC50 (COLO 205 [2]) [nM] | SMILES | further results
9200 | 2 | COc1ccc(-c2[nH]nc3c2-c2cc(OC)c(OC)c(OC)c2CC3)cc1F | –
> 10000 | > 10000 | COc1ccc(-c2c3c(nn2-c2ccccc2)CCc2c-3cc(OC)c(OC)c2OC)cc1F | –
> 10000 | 300 | COc1ccc(-c2[nH]nc3c2-c2cc(OC)c(OC)c(OC)c2CC3)cc1[N+](=O)[O-] | –
> 10000 | 2970 | COc1ccc(/C=C2\c3cc(OC)c(OC)c(OC)c3CC[C@H]2O)cc1 | –
> 10000 | 3350 | COc1ccc(-c2c3c(nn2C)CCc2c-3cc(OC)c(OC)c2OC)cc1 | –
> 10000 | 2910 | COc1ccc(-c2c3c(nn2CCO)CCc2c-3cc(OC)c(OC)c2OC)cc1F | –
